Publication PMC7998731, “Pharmacokinetic Characterization of Supinoxin and Its Physiologically Based Pharmacokinetic Modeling in Rats” (Pharmaceutics, 2021)
Like-named read-outs stand apart in the source and are kept apart here.

How the values were obtained:
[1] = In vivo pharmacokinetic study, oral administration to rats; settings: Sprague-Dawley, rat, plasma; for concentration at 0.25 h / concentration at 0.5 h / concentration at 1 h / concentration at 3 h / concentration at 7 h / concentration at 10 h / concentration at 24 h: fasted male SD rats; for concentration at 24 h: BQL treated as 0; for AUC(0-inf) / AUC(0-t) / Cmax / MRT / Tmax / half-life / bioavailability: male, rats, oral
Protocol: Male Sprague Dawley (SD) rats, 6–7 weeks old, were purchased from Orient Bio Inc. (Seongnam-si, Korea) and were used in all in vivo studies. The animals were maintained at a temperature of 20–26 °C with a 12 h light/dark cycle and a relative humidity of 40–60%. The experimental protocols involving the animals used in this study were reviewed by the Animal Care and Use Committee of Chungnam National University (CNU-00576, Daejeon, Korea; approval date: 13 March 2015).
Supinoxin was dissolved in a vehicle (10% DMSO, 10% Tween 80, 40% PEG 400, and 40% saline). In single doses, the administration routes involved an intravenous bolus via the tail vein (n = 4–5) and an oral gavage dose (n = 4–5). The dosing volume was 2 mL per kg body weight, and the dosing range was 0.5, 1, and 5 mg/kg. Blood samples (200 µL) were collected from the jugular vein at 0.083 (intravenous only), 0.25, 0.5, 1, 3, 7, 10, and 24 h after dosing, using a heparinized syringe to ensure anticoagulation. During blood sampling, rats were placed in a restrainer (Nagai-CFS-1S; NMS, Tokyo, Japan). For the separation of plasma fractions, all blood samples were centrifuged at 17,600× g for 5 min. The samples were stored at −20 °C until analysis. When obtaining tissue concentrations to calculate the tissue-to-plasma partition ratio was necessary, samples of nine tissues (i.e., adipose, heart, muscle, kidney, brain, liver, spleen, gut, and lung) were collected at 0.33, 1, 3, 7, and 24 h after 5 mg/kg intravenous administration of supinoxin (n = 3).
The peak concentration (Cmax) and the time to reach Cmax (Tmax) were obtained directly from individual plasma concentration–time profiles. Linear trapezoidal rule was used to calculate the areas under the plasma concentration–time curve (AUC) and the first moment curve (AUMC), while the terminal half-life (T1/2) was calculated using 0.693/λ, where λ represents the slope of the log-transformed concentration–time profiles of the terminal phase. The systemic clearance (CL), mean residence time (MRT), and the volume of the distribution at the steady state (Vss) were calculated as follows: dose/AUC, AUMC/AUC, and MRT·CL, respectively. To calculate the absolute oral bioavailability (F) we divided the AUC obtained following oral administration by that obtained following intravenous administration of the respective dose.
To determine supinoxin concentrations in plasma, feces, and urine, we used a previously reported LC–MS/MS assay using DGG-200064 as an internal standard (IS). Briefly, an aliquot (50 μL) of IS solution (concentration 100 ng/mL) was added to 50 μL of plasma, feces, or urine sample, following which 400 μL of acetonitrile containing 0.1% formic acid was added. After vigorous vortexing for 10 min, the extract was centrifuged at 17,600 rpm for 10 min at 4 °C, and the supernatant was placed in an autosampler vial. An aliquot of 5 µL was then injected into the analytical column for chromatographic separation; the analytical system consisted of a 1200 series HPLC system (Applied Biosystems, Foster City, CA, USA) equipped with a turbo-electrospray interface in positive ionization mode.

[2] = cited from earlier work; for Plasma concentration, Mean: fasted male SD rats, intravenous 1 mg/kg, ref 15 (Table 1 footnote)
[3] = Plasma protein binding by Rapid Equilibrium Dialysis; assay type: in vitro ADME; settings: rat plasma
Protocol: To determine the unbound fraction of supinoxin in the plasma, a protein binding study was carried out using the Rapid Equilibrium Dialysis (RED) method. Following the manufacturer’s protocol (Thermo Fisher Scientific, San Jose, CA, USA), supinoxin was added to a plasma aliquot to produce a final concentration of 1 µg/mL. A plasma aliquot containing supinoxin (200 µL) and buffer (350 µL) was added to the sample chamber and the buffer chamber, respectively. When necessary, supinoxin was added to the microsomal incubation mixture (0.5 mg of protein per mL in potassium phosphate buffer) to produce final concentrations of 1 µM. The plate was covered and agitated on an orbital shaker at approximately 250 rpm at 37 °C. Aliquots (25 µL) of the plasma and buffer were collected at 4, 8, 18, and 24 h, and the samples were subjected to LC–MS/MS analysis. The fraction of supinoxin bound to plasma protein was estimated as follows:Percent bound (%) = [1 − (concentration in buffer/concentration in plasma)] × 100%(5)

[4] = Tissue distribution (tissue-to-plasma partition) in rats; assay type: in vivo; settings: male, rat; for Vd: oral; for AUC(0-t): mean, read-out: AUC0–24h
[5] = rats, intravenous, 1 mg/kg, Jeong, J.-W. et al., 2017

Q: Which concentration at 0.25 h ([1]; oral 0.5 mg/kg) does the source give for `COc1cc(OC)cc(N2CCN(C(=O)Nc3nc4cc(F)ccc4nc3OC)CC2)c1` [supinoxin, 1-(3,5-Dimethoxyphenyl)-4-[(6-Fluoro-2-Methoxyquinoxalin-3-yl) Aminocarbonyl] Piperazine] here?
A: 51 ng/mL

Q: And the concentration at 0.5 h ([1]; oral 0.5 mg/kg)?
A: 99.6 ng/mL

Q: What about the concentration at 1 h ([1]; oral 0.5 mg/kg) of the same molecule?
A: 99.6 ng/mL

Q: And the concentration at 3 h ([1]; oral 0.5 mg/kg)?
A: 58 ng/mL

Q: What about the concentration at 7 h ([1]; oral 0.5 mg/kg) of the same molecule?
A: 13.1 ng/mL

Q: And the concentration at 10 h ([1]; oral 0.5 mg/kg)?
A: 5 ng/mL

Q: And the concentration at 24 h ([1]; oral 0.5 mg/kg)?
A: 0 ng/mL

Q: What about the concentration at 0.25 h ([1]; oral 5 mg/kg) of the same molecule?
A: 474 ng/mL

Q: And the concentration at 0.5 h ([1]; oral 5 mg/kg)?
A: 676 ng/mL

Q: And the concentration at 1 h ([1]; oral 5 mg/kg)?
A: 800 ng/mL

Q: What about the concentration at 3 h ([1]; oral 5 mg/kg) of the same molecule?
A: 480 ng/mL

Q: And the concentration at 7 h ([1]; oral 5 mg/kg)?
A: 113 ng/mL

Q: What about the concentration at 10 h ([1]; oral 5 mg/kg) of the same molecule?
A: 40.4 ng/mL

Q: And the concentration at 24 h ([1]; oral 5 mg/kg)?
A: 0.5 ng/mL

Q: And the AUC(0-inf) ([1]; 0.5 mg/kg)?
A: 418 ± 133 ng·h/mL

Q: What about the AUC(0-t) ([1]; 0.5 mg/kg) of the same molecule?
A: 402 ± 130 ng·h/mL

Q: And the Cmax ([1]; 0.5 mg/kg)?
A: 108 ± 36 ng/mL

Q: What about the MRT ([1]; 0.5 mg/kg) of the same molecule?
A: 2.99 ± 0.71 h

Q: What about the Tmax ([1]; 0.5 mg/kg) of the same molecule?
A: 0.8 ± 0.274 h

Q: What about the half-life ([1]; 0.5 mg/kg) of the same molecule?
A: 2 ± 0.5 h

Q: And the bioavailability ([1]; 0.5 mg/kg, read-out: F (absolute oral bioavailability))?
A: 57.4 ± 18.3%

Q: What about the AUC(0-inf) ([1]; 5 mg/kg) of the same molecule?
A: 3510 ± 1420 ng·h/mL

Q: What about the AUC(0-t) ([1]; 5 mg/kg) of the same molecule?
A: 3480 ± 1450 ng·h/mL

Q: What about the Cmax ([1]; 5 mg/kg) of the same molecule?
A: 823 ± 340 ng/mL

Q: And the MRT ([1]; 5 mg/kg)?
A: 3.17 ± 0.36 h

Q: And the Tmax ([1]; 5 mg/kg)?
A: 0.75 ± 0.289 h

Q: And the half-life ([1]; 5 mg/kg)?
A: 2.02 ± 0.33 h

Q: What about the bioavailability ([1]; 5 mg/kg, read-out: F (absolute oral bioavailability)) of the same molecule?
A: 57.2 ± 23.1%

Q: And the bioavailability ([1]; range over doses 0.5–5 mg/kg, read-out: absolute oral bioavailability)?
A: 56.9 to 57.4%

Q: What about the “Plasma concentration, Mean” value ([2]; 0.083 h) of the same molecule?
A: 860.2 ng/mL

Q: What about the “Plasma concentration, Mean” value ([2]; 0.25 h) of the same molecule?
A: 682.2 ng/mL

Q: And the “Plasma concentration, Mean” value ([2]; 0.5 h)?
A: 501.6 ng/mL

Q: And the “Plasma concentration, Mean” value ([2]; 1 h)?
A: 292.4 ng/mL

Q: What about the “Plasma concentration, Mean” value ([2]; 3 h) of the same molecule?
A: 194.2 ng/mL

Q: What about the “Plasma concentration, Mean” value ([2]; 7 h) of the same molecule?
A: 52.3 ng/mL

Q: What about the “Plasma concentration, Mean” value ([2]; 10 h) of the same molecule?
A: 20.8 ng/mL

Q: What about the “Plasma concentration, Mean” value ([2]; 24 h, BQL treated as 0) of the same molecule?
A: 0.5 ng/mL

Q: What about the AUCinf [2, 5] of the same molecule?
A: 1780 ± 300 ng·h/mL

Q: What about the AUClast [2, 5] of the same molecule?
A: 1750 ± 320 ng·h/mL

Q: And the T1/2 [2, 5]?
A: 2.64 ± 0.39 h

Q: What about the Vss [2, 5] of the same molecule?
A: 2.04 ± 0.316 L/kg

Q: And the fraction unbound at 4 h, 1 µg/mL ([3]; 1 µg/mL, 4 h incubation)?
A: 0.023 ± 0.0025

Q: What about the fraction unbound at 8 h, 1 µg/mL ([3]; 1 µg/mL, 8 h incubation) of the same molecule?
A: 0.0283 ± 0.0019

Q: And the fraction unbound at 24 h, 1 µg/mL ([3]; 1 µg/mL, 24 h incubation)?
A: 0.0354 ± 0.0055

Q: What about the fraction unbound at 1 µg/mL ([3]; as fraction, Determined, read-out: Fraction unbound in plasma (fu)) of the same molecule?
A: 0.0363

Q: And the Vd ([4]; Sprague Dawley, plasma, 5 mg/kg, estimated Kp and tissue volumes from literature, read-out: steady state volume of distribution calculated from Kp and tissue volumes)?
A: 1.92 L

Q: What about the AUC(0-t) ([4]; Sprague Dawley, Adipose tissue, rats, oral administration (5 mg/kg)) of the same molecule?
A: 111000 ng·h/mL

Q: And the AUC(0-t) ([4]; Sprague Dawley, Spleen, rats, oral administration (5 mg/kg))?
A: 3310 ng·h/mL

Q: And the AUC(0-t) ([4]; Sprague-Dawley, kidney, Kidneys, rats, oral administration (5 mg/kg))?
A: 11100 ng·h/mL

Q: And the Kp ([4]; Sprague-Dawley, kidney, Kidneys, rats, oral administration (5 mg/kg), read-out: Kp (tissue to plasma AUC ratio))?
A: 2.18

Q: What about the AUC(0-t) ([4]; Sprague-Dawley, lung, Lungs, rats, oral administration (5 mg/kg)) of the same molecule?
A: 5520 ng·h/mL

Q: And the Kp ([4]; Sprague-Dawley, lung, Lungs, rats, oral administration (5 mg/kg), read-out: Kp (tissue to plasma AUC ratio))?
A: 1.08

Q: And the AUC(0-t) ([4]; Sprague-Dawley, muscle, Muscles, rats, oral administration (5 mg/kg))?
A: 6130 ng·h/mL

Q: And the Kp ([4]; Sprague-Dawley, muscle, Muscles, rats, oral administration (5 mg/kg), read-out: Kp (tissue to plasma AUC ratio))?
A: 1.2

Q: What about the Vd ([4]; Sprague-Dawley, 5 mg/kg, sum of Kp × Volume over plasma and tissues, read-out: Vd) of the same molecule?
A: 1.92 L/kg

Q: And the Kp ([4]; Sprague-Dawley, several tissues (range over tissues), intravenous, 5 mg/kg, range over tissues, PBPK input parameter, Determined, read-out: Tissue: Plasma partition coefficients)?
A: 0.649 to 21.7

Q: And the AUC(0-t) ([4]; Sprague-Dawley, Adipose tissue, rats, oral administration (5 mg/kg))?
A: 111000 ng·h/mL

Q: And the Kp ([4]; Sprague-Dawley, Adipose tissue, rats, oral administration (5 mg/kg), read-out: Kp (tissue to plasma AUC ratio))?
A: 21.7

Q: What about the AUC(0-t) ([4]; Sprague-Dawley, Brain, rats, oral administration (5 mg/kg)) of the same molecule?
A: 4350 ng·h/mL

Q: What about the Kp ([4]; Sprague-Dawley, Brain, rats, oral administration (5 mg/kg), read-out: Kp (tissue to plasma AUC ratio)) of the same molecule?
A: 0.85

Q: And the AUC(0-t) ([4]; Sprague-Dawley, Gut, rats, oral administration (5 mg/kg))?
A: 25300 ng·h/mL

Q: What about the Kp ([4]; Sprague-Dawley, Gut, rats, oral administration (5 mg/kg), read-out: Kp (tissue to plasma AUC ratio)) of the same molecule?
A: 4.96

Q: What about the AUC(0-t) ([4]; Sprague-Dawley, Heart, rats, oral administration (5 mg/kg)) of the same molecule?
A: 3550 ng·h/mL

Q: And the Kp ([4]; Sprague-Dawley, Heart, rats, oral administration (5 mg/kg), read-out: Kp (tissue to plasma AUC ratio))?
A: 0.7

Q: What about the AUC(0-t) ([4]; Sprague-Dawley, Liver, rats, oral administration (5 mg/kg)) of the same molecule?
A: 24300 ng·h/mL

Q: What about the Kp ([4]; Sprague-Dawley, Liver, rats, oral administration (5 mg/kg), read-out: Kp (tissue to plasma AUC ratio)) of the same molecule?
A: 4.76

Q: And the AUC(0-t) ([4]; Sprague-Dawley, Plasma, rats, oral administration (5 mg/kg))?
A: 5110 ng·h/mL

Q: And the Kp ([4]; Sprague-Dawley, Plasma, rats, oral administration (5 mg/kg), read-out: Kp (tissue to plasma AUC ratio))?
A: 1

Q: And the AUC(0-t) ([4]; Sprague-Dawley, Spleen, rats, oral administration (5 mg/kg))?
A: 3310 ng·h/mL

Q: What about the Kp ([4]; Sprague-Dawley, Spleen, rats, oral administration (5 mg/kg), read-out: Kp (tissue to plasma AUC ratio)) of the same molecule?
A: 0.65

Q: And the AUC(0-t) ([4]; Sprague-Dawley, Testes, rats, oral administration (5 mg/kg))?
A: 5370 ng·h/mL

Q: And the Kp ([4]; Sprague-Dawley, Testes, rats, oral administration (5 mg/kg), read-out: Kp (tissue to plasma AUC ratio))?
A: 1.05
